System: Mecp2^R306C and Shank3B^+/− mice
Experiment: Chronic isoguvacine treatment from P0-P42 of Mecp2 and Shank3 germline mutant mice
Format: in vivo, mouse
Description: FIGS. 21A-21O show chronic administration of isoguvacine improves tactile over-reactivity, region-selective cortical abnormalities, and some ASD-related behaviors in Mecp2 and Shank3 mutant mice. FIG. 21A: Representative images of P21 control and Mecp2^C/y mutant mice treated daily from P0-21 with either saline or isoguvacine (2 mg/kg). FIG. 21B: Average phenotypic score of P21 Shank3B^+/− or Mecp2^C/y mutant mice and control littermates treated daily with either saline or isoguvacine (2 mg/kg). One-way ANOVA with post-hoc Tukey's test, *, p<0.05. FIG. 21C: Average bodyweight of P21 Shank3B^+/− or Mecp2^C/y mutant mice and control littermates treated daily with either saline or isoguvacine (2 mg/kg). One-way ANOVA with post-hoc Tukey's test, *, p<0.05. […] One-way ANOVA with post-hoc Tukey's test, *, p<0.05. FIG. 21E: Discrimination index for textured NORT. One-way ANOVA with post-hoc Tukey's test, *, p<0.05. FIG. 21F: Representative activity traces in the OF test. FIG. 21G: Percent time spent in the center of the OF chamber. One-way ANOVA with post-hoc Tukey's test, *, p<0.05. FIG. 21H: Percent time spent in the open arms of the EPM. One-way ANOVA with post-hoc Tukey's test, *, p<0.05. FIGS. 21I-21J: Preference index for the percentage of time spent investigating the novel mouse in the “Sociability” (FIG. 21I) or “Social Novelty Recognition Preference” (FIG. 21J) portion of the 3-chamber social interaction test. One-way ANOVA with post-hoc Tukey's test, *, p<0.05. FIG. 21K: Representative IHC images of transverse S1 brain sections, showing PV immunoreactivity in Shank3B^+/− or Mecp2^C/y mutant mice and control littermates treated daily from P1-42 with either saline or isoguvacine (2 mg/kg). FIGS. 21L-21M: Quantification of the number of PV-positive (PV^+) neurons in S1 (FIG. 21L) and V1 (FIG. 21M). One-way ANOVA with post-hoc Tukey's test, *, p<0.05. FIG. 21N: Representative traces showing ePSCS (−70 my hold) and iPSCs (0 mV hold) from S1 slices from Shank3B^+/− or Mecp2^C/y mutant mice and control littermates treated daily from P1-42 with either saline or isoguvacine (2 mg/kg). FIG. 21O: Quantification of excitatory/inhibitory (E/I) ratio in S1 or V1 slices from control and mutant mice. One-way ANOVA with post-hoc Tukey's test, *, p<0.05.
Therefore, it was tested whether chronic treatment of Mecp2 and Shank3 germline mutant mice with isoguvacine beginning shortly after birth (i.p. administration, 2 mg/kg per daily, from P0-P42) improves any of the ASD-related phenotypes commonly observed in adulthood. […] Taken together, treatment with a peripherally restricted GABAA receptor agonist during early postnatal development may provide an effective therapeutic strategy for improving tactile over-reactivity and a subset of other key features of ASD, including anxiety, without causing sedation and other undesirable effects of activating brain GABAA receptors during development.

## O=C(O)C1=CCNCC1 [Isoguvacine, isoguvacine]
8-week-old mice, 2 mg/kg i.p. daily P0-P42
  tactile over-reactivity, anxiety-like behaviors, social impairments, PV+ neuron abnormalities in S1 and BLA, E/I ratios in S1: significantly improved multiple ASD-associated behavioral phenotypes
Mecp2 mutants, chronic 2 mg/kg
  motor impairments: not improved
P21, 2 mg/kg i.p. daily, vs saline-treated
  overall body appearance, or phenotypic score: substantial improvement
P21, Shank3B and Mecp2 mutant mice, 2 mg/kg daily
  bodyweight of mutant mice: increased bodyweight and were not different in weight from control mice
Shank3 mutants, chronic 2 mg/kg
  overgrooming phenotype: nor was the overgrooming phenotype rescued
Shank3 or Mecp2 mutants, 2 mg/kg i.p. daily P0-P42
  textured discrimination deficits, acoustic PPI performance, memory impairments, PV+ neuron abnormalities and E/I ratios in V1: did not improve

Reference: patent US12252457B2, “Compositions and methods for reducing tactile dysfunction, anxiety, and social impairment” (President and Fellows of Harvard College, priority 2018, dated 2025)
